How the values were obtained:
Test in all cases: Competitive isoTOP-ABPP, cell lysates
Assay type in all cases: binding
USP34 C1090 (Q70CQ2) = USP34 C1090 (Q70CQ2) (Homo sapiens, UniProt Q70CQ2); settings: for isoTOP-ABPP ratio (reactivity profile), Q70CQ2_C1090: 500 μm in-vitro ramos
PES1 C361 (O00541) = PES1 C361 (O00541) (Homo sapiens, UniProt O00541)
CYR61 C134 (O00622) = biological target: T1, CYR61 C134 (O00622) (Homo sapiens, UniProt O00622); settings: for isoTOP-ABPP ratio (reactivity profile), O00622_C134: 500 μm in-vitro ramos_231
T1 sequence (O00622 25-381): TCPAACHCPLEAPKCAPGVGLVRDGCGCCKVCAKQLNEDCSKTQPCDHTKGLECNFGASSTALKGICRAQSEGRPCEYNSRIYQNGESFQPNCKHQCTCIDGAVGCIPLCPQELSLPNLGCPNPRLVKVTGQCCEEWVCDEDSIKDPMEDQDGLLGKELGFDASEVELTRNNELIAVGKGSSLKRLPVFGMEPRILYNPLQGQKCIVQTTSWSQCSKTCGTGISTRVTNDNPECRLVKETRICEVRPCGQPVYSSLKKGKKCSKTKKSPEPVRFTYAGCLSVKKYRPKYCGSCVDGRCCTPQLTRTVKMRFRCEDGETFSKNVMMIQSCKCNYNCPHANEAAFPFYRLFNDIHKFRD

NR3C1 C622 (P04150) = biological target: T2, NR3C1 C622 (P04150) (Homo sapiens, UniProt P04150)
T2 sequence (P04150 1-777): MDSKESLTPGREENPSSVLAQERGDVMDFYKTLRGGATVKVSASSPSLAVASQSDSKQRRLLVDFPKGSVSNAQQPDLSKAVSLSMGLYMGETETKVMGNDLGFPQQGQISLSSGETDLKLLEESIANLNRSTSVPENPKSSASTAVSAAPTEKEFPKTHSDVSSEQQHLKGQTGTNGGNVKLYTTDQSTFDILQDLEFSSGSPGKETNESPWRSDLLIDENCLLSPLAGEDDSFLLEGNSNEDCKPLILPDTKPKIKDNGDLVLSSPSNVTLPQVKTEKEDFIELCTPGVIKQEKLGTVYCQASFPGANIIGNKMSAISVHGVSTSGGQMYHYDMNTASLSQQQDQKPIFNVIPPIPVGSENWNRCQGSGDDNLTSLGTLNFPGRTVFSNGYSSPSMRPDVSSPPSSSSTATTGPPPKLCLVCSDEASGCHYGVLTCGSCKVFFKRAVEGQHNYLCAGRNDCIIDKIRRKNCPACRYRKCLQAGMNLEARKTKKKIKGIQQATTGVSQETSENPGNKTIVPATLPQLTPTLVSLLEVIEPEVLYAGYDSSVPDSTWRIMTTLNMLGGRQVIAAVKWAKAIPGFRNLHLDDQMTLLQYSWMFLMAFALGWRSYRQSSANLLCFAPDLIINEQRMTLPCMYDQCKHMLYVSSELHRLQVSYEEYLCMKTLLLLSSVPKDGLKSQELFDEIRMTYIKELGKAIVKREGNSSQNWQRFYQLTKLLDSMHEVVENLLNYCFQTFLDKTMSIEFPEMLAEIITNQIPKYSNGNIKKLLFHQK

PES1 C361 (O00541), sequence (O00541 whole entry, looked up): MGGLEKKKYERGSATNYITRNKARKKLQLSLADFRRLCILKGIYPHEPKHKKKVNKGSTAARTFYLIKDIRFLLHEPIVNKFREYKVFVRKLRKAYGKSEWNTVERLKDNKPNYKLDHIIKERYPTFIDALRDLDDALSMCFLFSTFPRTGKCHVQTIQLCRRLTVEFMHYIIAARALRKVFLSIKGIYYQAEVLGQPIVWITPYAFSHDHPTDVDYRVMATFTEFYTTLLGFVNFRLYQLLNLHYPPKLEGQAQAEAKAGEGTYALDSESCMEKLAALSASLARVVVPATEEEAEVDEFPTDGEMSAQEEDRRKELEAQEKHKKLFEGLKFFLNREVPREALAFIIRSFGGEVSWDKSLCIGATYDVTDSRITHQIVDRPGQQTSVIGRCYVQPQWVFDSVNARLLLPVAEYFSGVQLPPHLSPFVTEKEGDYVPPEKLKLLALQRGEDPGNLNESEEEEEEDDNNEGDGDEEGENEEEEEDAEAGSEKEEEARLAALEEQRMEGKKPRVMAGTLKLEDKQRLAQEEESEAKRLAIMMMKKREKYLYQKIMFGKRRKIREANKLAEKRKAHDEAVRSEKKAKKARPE
USP34 C1090 (Q70CQ2), sequence (Q70CQ2 whole entry): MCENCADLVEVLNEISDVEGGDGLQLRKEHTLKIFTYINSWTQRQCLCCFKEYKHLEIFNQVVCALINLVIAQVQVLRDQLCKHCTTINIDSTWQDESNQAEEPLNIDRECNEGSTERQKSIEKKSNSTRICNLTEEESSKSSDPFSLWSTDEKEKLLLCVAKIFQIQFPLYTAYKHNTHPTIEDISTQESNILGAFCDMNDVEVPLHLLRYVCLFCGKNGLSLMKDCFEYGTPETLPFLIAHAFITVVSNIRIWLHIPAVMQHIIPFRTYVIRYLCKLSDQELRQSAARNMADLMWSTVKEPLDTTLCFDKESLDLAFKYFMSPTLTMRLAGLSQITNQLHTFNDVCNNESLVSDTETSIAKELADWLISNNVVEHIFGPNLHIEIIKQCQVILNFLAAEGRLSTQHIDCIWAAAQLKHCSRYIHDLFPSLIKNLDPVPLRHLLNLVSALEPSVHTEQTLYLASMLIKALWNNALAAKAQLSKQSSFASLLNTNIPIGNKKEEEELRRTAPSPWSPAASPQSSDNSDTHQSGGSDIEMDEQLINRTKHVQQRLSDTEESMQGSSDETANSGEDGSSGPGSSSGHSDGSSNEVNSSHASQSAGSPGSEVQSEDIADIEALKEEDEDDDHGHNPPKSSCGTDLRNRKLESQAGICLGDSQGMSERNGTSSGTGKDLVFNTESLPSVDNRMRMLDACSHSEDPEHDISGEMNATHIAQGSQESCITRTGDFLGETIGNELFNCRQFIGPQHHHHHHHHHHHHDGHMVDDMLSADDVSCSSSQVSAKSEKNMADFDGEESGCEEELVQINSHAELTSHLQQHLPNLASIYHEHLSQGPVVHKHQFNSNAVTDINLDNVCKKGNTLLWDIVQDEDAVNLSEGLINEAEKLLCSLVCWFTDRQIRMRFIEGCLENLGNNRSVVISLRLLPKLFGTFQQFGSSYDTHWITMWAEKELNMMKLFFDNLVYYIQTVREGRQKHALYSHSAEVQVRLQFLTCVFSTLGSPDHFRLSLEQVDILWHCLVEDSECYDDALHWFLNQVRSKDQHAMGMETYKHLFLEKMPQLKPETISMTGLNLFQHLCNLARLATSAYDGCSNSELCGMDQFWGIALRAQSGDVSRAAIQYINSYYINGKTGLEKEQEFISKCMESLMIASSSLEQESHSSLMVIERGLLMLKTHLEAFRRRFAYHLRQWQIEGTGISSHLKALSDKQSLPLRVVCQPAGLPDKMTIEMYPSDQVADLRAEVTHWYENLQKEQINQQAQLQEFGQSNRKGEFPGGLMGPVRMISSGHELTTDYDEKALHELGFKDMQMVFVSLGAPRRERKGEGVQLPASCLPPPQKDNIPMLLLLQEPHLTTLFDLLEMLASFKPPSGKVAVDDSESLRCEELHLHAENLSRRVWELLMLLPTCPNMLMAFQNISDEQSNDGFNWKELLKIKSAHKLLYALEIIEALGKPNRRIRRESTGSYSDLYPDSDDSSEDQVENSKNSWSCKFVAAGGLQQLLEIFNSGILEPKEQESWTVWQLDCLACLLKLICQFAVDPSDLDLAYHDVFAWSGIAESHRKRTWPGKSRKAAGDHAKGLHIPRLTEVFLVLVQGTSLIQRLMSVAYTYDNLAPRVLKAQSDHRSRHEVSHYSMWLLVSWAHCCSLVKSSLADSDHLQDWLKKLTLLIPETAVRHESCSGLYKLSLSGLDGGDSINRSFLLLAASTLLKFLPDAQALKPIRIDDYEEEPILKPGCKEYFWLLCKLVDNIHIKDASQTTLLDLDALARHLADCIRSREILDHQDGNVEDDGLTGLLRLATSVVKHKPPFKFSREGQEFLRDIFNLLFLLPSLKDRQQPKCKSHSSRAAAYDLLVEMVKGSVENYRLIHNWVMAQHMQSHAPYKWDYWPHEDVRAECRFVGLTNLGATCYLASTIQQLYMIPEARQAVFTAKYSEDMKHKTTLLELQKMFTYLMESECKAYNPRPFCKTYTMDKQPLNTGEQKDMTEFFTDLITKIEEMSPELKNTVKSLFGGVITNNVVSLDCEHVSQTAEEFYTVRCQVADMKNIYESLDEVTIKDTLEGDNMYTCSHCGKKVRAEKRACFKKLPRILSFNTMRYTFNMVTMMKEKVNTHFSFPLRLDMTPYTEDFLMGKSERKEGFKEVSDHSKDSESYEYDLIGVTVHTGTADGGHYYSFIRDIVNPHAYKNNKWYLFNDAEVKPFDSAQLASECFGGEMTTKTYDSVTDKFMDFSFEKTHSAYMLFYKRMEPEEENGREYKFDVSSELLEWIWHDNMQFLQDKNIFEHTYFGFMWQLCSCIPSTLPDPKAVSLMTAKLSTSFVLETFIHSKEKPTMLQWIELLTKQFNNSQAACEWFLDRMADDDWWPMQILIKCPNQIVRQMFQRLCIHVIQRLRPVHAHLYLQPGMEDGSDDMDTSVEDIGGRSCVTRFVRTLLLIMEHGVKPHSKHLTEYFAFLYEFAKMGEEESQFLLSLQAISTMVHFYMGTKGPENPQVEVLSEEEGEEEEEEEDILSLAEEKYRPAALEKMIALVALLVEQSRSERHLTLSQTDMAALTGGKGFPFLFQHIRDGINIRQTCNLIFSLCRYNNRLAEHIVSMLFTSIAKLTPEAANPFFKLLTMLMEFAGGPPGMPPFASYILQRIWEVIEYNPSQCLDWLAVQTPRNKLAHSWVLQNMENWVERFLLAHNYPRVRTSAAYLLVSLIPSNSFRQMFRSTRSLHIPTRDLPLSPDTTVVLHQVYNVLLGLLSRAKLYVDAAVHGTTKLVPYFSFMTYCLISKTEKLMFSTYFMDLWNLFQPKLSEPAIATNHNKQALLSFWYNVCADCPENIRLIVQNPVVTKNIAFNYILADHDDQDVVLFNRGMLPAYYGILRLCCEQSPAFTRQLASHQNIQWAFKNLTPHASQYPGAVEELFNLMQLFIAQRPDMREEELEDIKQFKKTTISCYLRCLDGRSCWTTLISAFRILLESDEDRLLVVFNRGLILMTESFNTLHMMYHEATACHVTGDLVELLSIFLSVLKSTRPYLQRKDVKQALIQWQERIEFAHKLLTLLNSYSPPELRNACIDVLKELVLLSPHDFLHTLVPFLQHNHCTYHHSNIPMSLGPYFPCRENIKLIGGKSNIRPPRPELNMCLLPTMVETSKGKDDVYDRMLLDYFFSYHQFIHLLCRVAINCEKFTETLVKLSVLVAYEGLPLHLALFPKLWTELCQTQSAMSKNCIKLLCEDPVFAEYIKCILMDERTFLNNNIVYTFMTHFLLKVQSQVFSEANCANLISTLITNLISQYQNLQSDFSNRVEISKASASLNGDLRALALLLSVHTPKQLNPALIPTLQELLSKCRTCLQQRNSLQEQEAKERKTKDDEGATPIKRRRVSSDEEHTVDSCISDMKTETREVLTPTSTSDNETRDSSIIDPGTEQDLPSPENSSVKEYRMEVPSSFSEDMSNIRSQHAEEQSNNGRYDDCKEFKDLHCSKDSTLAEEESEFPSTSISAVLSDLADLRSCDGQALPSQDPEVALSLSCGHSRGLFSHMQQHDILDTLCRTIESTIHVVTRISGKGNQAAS

O=C(CCl)N1CCC(C(O)(c2ccccc2)c2ccccc2)CC1 [compound 20]
isoTOP-ABPP ratio (reactivity profile), Q70CQ2_C1090 (USP34 C1090 (Q70CQ2)): 2.7
isoTOP-ABPP ratio (reactivity profile), O00541_C361 (PES1 C361 (O00541); 500 μm in-vitro ramos): 20.0
isoTOP-ABPP ratio (reactivity profile), O00541_C361 (PES1 C361 (O00541); 500 μm in-vitro ramos_231): 20.0
isoTOP-ABPP ratio (reactivity profile), O00622_C134 (CYR61 C134 (O00622)): 20.0

O=C(CCl)NC12CC3CC(CC(C3)C1)C2 [compound 21]
isoTOP-ABPP ratio (reactivity profile), Q70CQ2_C1090 (USP34 C1090 (Q70CQ2)): 0.9

Cn1cc(S(=O)(=O)N2CCOCC2)cc1C(=O)NC(=O)CCl [compound 11]
isoTOP-ABPP ratio, P04150_C622 (NR3C1 C622 (P04150); 500 μM, invitro, 231): 1.7

O=C(CCl)Nc1cc(C(F)(F)F)cc(C(F)(F)F)c1 [compound 3]
R value (DMSO/fragment) (USP34 C1090 (Q70CQ2); 500 μM, invitro, ramos): 19.7
R value (DMSO/fragment) (PES1 C361 (O00541); 500 μM, in vitro, MDA-MB-231): 1.5
R value (DMSO/fragment) (CYR61 C134 (O00622); 500 μM, in vitro, MDA-MB-231): 20.0
R value (DMSO/fragment) (NR3C1 C622 (P04150); 500 μM, in vitro, MDA-MB-231): 20.0

C=CC(=O)N(c1ccccc1)c1ccc(Br)cc1 [compound 5]
isoTOP-ABPP ratio, Q70CQ2_C1090 (USP34 C1090 (Q70CQ2); 500 μM, invitro, ramos): 20.0

CC(Cl)C(=O)Nc1cc(C(F)(F)F)cc(C(F)(F)F)c1 (stereo not shown) [compound 25]
isoTOP-ABPP ratio (reactivity profile), O00622_C134 (CYR61 C134 (O00622)): 1.0

N#C/C(=C\c1cc(C(F)(F)F)cc(C(F)(F)F)c1)C(N)=O [compound 23]
isoTOP-ABPP ratio (reactivity profile), O00541_C361 (PES1 C361 (O00541); 500 μm in-vitro ramos): 1.1

CC(C)CCOCCNC(=O)CCl [compound 27]
isoTOP-ABPP ratio (reactivity profile), O00622_C134 (CYR61 C134 (O00622)): 1.5

O=C(CCl)N1CCN(S(=O)(=O)c2ccccc2F)CC1 [compound 10]
isoTOP-ABPP ratio, O00622_C134 (CYR61 C134 (O00622); 500 μM, invitro, 231): 20.0

C=CC(=O)N(Cc1cccnc1)c1cc(C(F)(F)F)cc(C(F)(F)F)c1 [compound 31]
isoTOP-ABPP reactivity ratio, P04150_C622 (NR3C1 C622 (P04150); 500 μm, in-vitro_ramos_231): 4.8

— patent US10670605B2, “Cysteine reactive probes and uses thereof” (The Scripps Research Institute, priority 2015, dated 2020)
